Test results from PubChem BioAssay AID1996.
Values after ≈ are worked out from the molar mass of the structure shown.

Conditions: buffer; pH 7.4; 200.0 µM

Row | SMILES | solubility kinetic [µg/mL]
1 | CCN(CCO)Cc1cc(=O)oc2cc3c(cc12)CCC3 | 42.1 (≈ 147 µM)
2 | CC(=O)C(Cc1ccccc1)NC(=O)COc1ccc2c(c1)OCO2 (configuration not stated) | > 51.2
3 | CC(=O)c1ccccc1NC(=O)CSc1n[nH]c(=O)n1C1CC1 | > 49.9
4 | O=C(CNC(=O)c1ccccc1F)OC1CCOC1=O (configuration not stated) | > 42.2
5 | CC(C)(C)NC(=O)COc1ccc(CNc2ccc3[nH]c(=O)[nH]c3c2)cc1 | 0.8 (≈ 2.17 µM)
6 | C[C@@H]1NC(=O)/C(=C\c2ccccc2Cl)NC1=O | 12.8 (≈ 51.1 µM)
7 | c1ccc(NC(c2ccccc2)c2ccncc2)cc1 (configuration not stated) | 25.5 (≈ 97.9 µM)
8 | COc1cccc(NC(=O)Nc2ccc3c(c2)OCO3)c1 | 3.7 (≈ 12.9 µM)
9 | Cc1ccc(NC(=O)NCc2ccc3[nH]c(C)cc3c2)cc1 | 2.9 (≈ 9.89 µM)
10 | Nc1cccc(-n2cccc2)c1 | 18.2 (≈ 115 µM)
11 | O=C(NC12CC3CC(CC(C3)C1)C2)c1cc(F)c(F)cc1Cl | 0.7 (≈ 2.15 µM)
12 | Cc1cc(N/C=C(\C#N)S(=O)(=O)c2ccc(Cl)cc2)nc(C)n1 | 12.9 (≈ 37 µM)
13 | Cc1ccc2c(CC(=O)NC3CCS(=O)(=O)C3)coc2c1C (configuration not stated) | > 48.2
14 | CN(C)NC(=O)c1cccc(Cl)c1 | > 29.8
15 | O=C1NC2(CCCCCC2)C(=O)N1Cc1cccc([N+](=O)[O-])c1 | 32.1 (≈ 101 µM)
16 | Cc1cc(C)nc(S/C=C/C(=O)c2ccc(F)cc2)n1 | < 0.3
17 | COc1cccc(SCC(=O)N2CCN(c3ccccc3)CC2)c1 | 34.2 (≈ 99.9 µM)
18 | CC1=C(C(N)=O)C(c2cccs2)NC(=S)N1 (configuration not stated) | 34.7 (≈ 137 µM)
19 | CC(C)c1ccc(S(=O)(=O)Nc2ccc3c(c2)OCO3)cc1 | 26.4 (≈ 82.7 µM)
20 | COC(=O)c1cc(C(=O)OC)cc(-n2c(C)cc(C=O)c2C)c1 | 35.8 (≈ 114 µM)
21 | Cc1ccccc1C(=O)NC(=S)N(Cc1ccccc1)c1ccccn1 | > 54.2

Row | SMILES | solubility kinetic [µg/mL]
22 | Cc1ccc(CN2CCN(C3CCC3)CC2CCO)cc1 (configuration not stated) | 42.4 (≈ 147 µM)
23 | O=C(COC(=O)CCC(=O)c1cccs1)NCCc1ccccc1 | > 51.8
24 | Cc1nc2ccccc2c(=O)n1NC(=O)c1cccc(Cl)c1 | > 47.1
25 | FC(F)(F)c1ccc(NCc2ccccn2)nc1 | > 38
26 | CCOc1ccc2[nH]cc(C(=O)NCc3ccccc3)c(=O)c2c1 | 0.9 (≈ 2.79 µM)
27 | CC(=O)Nc1cccc(C(=O)Nc2cccc3ncccc23)c1 | 40.3 (≈ 132 µM)
28 | Cc1ccc(N=Cc2c(O)c3ccccc3n(C)c2=O)cc1 | 3.3 (≈ 11.3 µM)
29 | CC(=O)NCc1ccc(C(=O)COC(=O)COc2ccc(Cl)c(C)c2)s1 | 38.6 (≈ 97.5 µM)
30 | C=Cn1cc[n+](CC(=O)c2ccc(Br)cc2)c1.[Br-] | > 55.8
31 | O=C(CNS(=O)(=O)c1ccc(F)cc1)N1CCOCC1 | > 45.3
32 | CCOC(=O)CNC(=O)Cc1ccc(Cl)cc1 | > 38.4
33 | COc1ccc(CC(=O)N2CCN(c3cccc(Cl)c3)CC2)cc1OC | 48.7 (≈ 130 µM)
34 | COc1ccc(CCN2C(=O)C(C)=C(C)C2=O)cc1OC | > 43.4
35 | CN1CCCC(OC(=O)/C(C#N)=C/c2ccccc2)C1.Cl (configuration not stated) | > 46
36 | CCCS(=O)(=O)N1CCC(C(=O)NCCC(C)C)CC1 | > 45.7
37 | CC(=O)OC1OCCOC1NC(=S)Nc1ccc(C)cc1 (configuration not stated) | 44.4 (≈ 143 µM)
38 | CCOc1ccc(NC(=O)C2CC(=O)N(Cc3ccco3)C2)cc1 (configuration not stated) | > 49.3
39 | O=C(CN1C(=O)c2ccccc2C1=O)Nc1ccccc1 | 18.9 (≈ 67.4 µM)
40 | CCCCN(C(=O)C1CC1)C1CCS(=O)(=O)C1 (configuration not stated) | > 38.9
41 | CCOCCCNC(=O)c1cc2c(=O)[nH]c3ccccc3c2s1 | 1.7 (≈ 5.15 µM)
42 | O=C(Nc1ccccc1Br)c1ccc2nccnc2c1 | > 49.2

Row | SMILES | solubility kinetic [µg/mL]
43 | CCOc1ccc(NC(=O)c2nsc(Cl)c2Cl)cc1 | 1.3 (≈ 4.1 µM)
44 | O=C(CCNc1cccc(F)c1)c1cc2ccccc2o1 | < 0.6
45 | COc1ccccc1-c1noc(CCC(=O)NC2CCCC2)n1 | > 47.3
46 | COc1cccc(CNCc2ccccc2OC)c1.O=C(O)C(=O)O | 28.9
47 | O=C(CN1CCN(c2ccccn2)CC1)Nc1ccccc1F | 42.3 (≈ 135 µM)
48 | COc1ccc(OC)c(NC(=O)Nc2cnccn2)c1 | 3.3 (≈ 12 µM)
49 | CN1C(=O)c2cccc3c(N(C)C)ccc(c23)C1=O | 5.9 (≈ 23.2 µM)
50 | CCOCCCNC(=O)C1c2ccccc2Oc2ccccc21 | 13.6 (≈ 43.7 µM)
51 | O=Cc1cccn1-c1ccc2ccccc2c1 | 15 (≈ 67.8 µM)
52 | N#C/C(=C\c1ccc(F)cc1)C(=O)NC1CCS(=O)(=O)C1 (configuration not stated) | 33.8 (≈ 110 µM)
53 | O=[N+]([O-])c1ccc2c(c1)c1ccccc1n2CCO | 6.2 (≈ 24.2 µM)
54 | Cc1nn(C)c(Cl)c1/C=N/OC(=O)c1ccccc1 | > 41.7
55 | O=C(O)C1CCN(S(=O)(=O)c2cccc3cccnc23)CC1 | > 48.1
56 | O=C(CSc1cccc[n+]1[O-])Nc1ccccc1C(F)(F)F | > 49.2
57 | CC1(NC(=S)Nc2ccccc2)CCS(=O)(=O)C1 (configuration not stated) | > 42.7
58 | COc1ccccc1/C=C1\C(=O)Nc2ccccc21 | 2 (≈ 7.96 µM)
59 | O=C(COc1ccccc1)NCC1(N2CCCCC2)CCCCC1 | 48.3 (≈ 146 µM)
60 | CN(C(=O)c1cccc(C(F)(F)F)c1)C1CCCc2ccccc21 (configuration not stated) | 19.5 (≈ 58.5 µM)
61 | CNC(=O)c1ccccc1Sc1cccc2cccc(C(=O)O)c12 | > 50.6
62 | Cc1ccc2nc3c(nc2c1C)CCCC3 | 7.1 (≈ 33.4 µM)
